ChEMBL document CHEMBL5537206 (J Med Chem, 2024)
Active and inactive are the calls of the source. The rule behind the calls is not given here.

Tests used:
[1] = Toxicity in BALB/c nude mouse assessed as effect on liver at 20 to 60 mg/kg, ip measured after 22 days by H and E staining based analysis; assay type: organism-based; details: in vivo, 528 h, dose 20-60 mg/kg, time 22 day
[2] = tested on: Osimertinib-resistant NCI-H1975 cell; assay: Anticancer activity against human Osimertinib-resistant NCI-H1975 cell (AZDR) xenografted in BALB/c nude mouse model assessed as increase in tumor cell apoptosis administered as ip dose by TUNEL assay; assay type: functional, organism-based; details: dose 20-60 mg/kg
[3] = tested on: Osimertinib-resistant NCI-H1975 cell; assay: Anticancer activity against human Osimertinib-resistant NCI-H1975 cell (AZDR) xenografted in BALB/c nude mouse model assessed as reduction in tumor weight administered as ip dose and measured upto 22 days; assay type: functional, organism-based; details: dose 20-60 mg/kg, time <= 22.0 day
[4] = Toxicity in BALB/c nude mouse assessed as effect on lung at 20 to 60 mg/kg, ip measured after 22 days by H and E staining based analysis; assay type: organism-based; details: in vivo, 528 h, dose 20-60 mg/kg, time 22 day
Mus musculus = assay: In vivo inhibition of EGFR L858R/T790M mutant in BALB/c nude mouse xenografted with human Osimertinib-resistant NCI-H1975 cell (AZDR) assessed as downregulation of AKT phosphorylation at 60 mg/kg, ip measured after 22 days; assay type: functional, organism-based; details: time 22.0 day
[5] = tested on: Osimertinib-resistant NCI-H1975 cell; assay: Inhibition of cell migration in human Osimertinib-resistant NCI-H1975 cell (AZDR) measured after 24 hrs by wound healing assay; assay type: functional, cell-based; details: dose 0.1-10 µM
[6] = Toxicity in BALB/c nude mouse assessed as effect on body weight at 20 to 60 mg/kg, ip measured upto 22 days; assay type: organism-based; details: in vivo, 528 h, dose 20-60 mg/kg, time < 22 day
[7] = tested on: Osimertinib-resistant NCI-H1975 cell; assay: Anticancer activity against human Osimertinib-resistant NCI-H1975 cell (AZDR) xenografted in BALB/c nude mouse model assessed as inhibition of tumor growth administered as ip dose and measured upto 22 days; assay type: functional, organism-based; details: dose 20-60 mg/kg, time <= 22.0 day
[8] = Toxicity in BALB/c nude mouse assessed as effect on spleen at 20 to 60 mg/kg, ip measured after 22 days by H and E staining based analysis; assay type: organism-based; details: in vivo, 528 h, dose 20-60 mg/kg, time 22 day
[9] = tested on: Osimertinib-resistant NCI-H1975 cell; assay: Induction of apoptosis in human Osimertinib-resistant NCI-H1975 cell (AZDR) assessed as early apoptotic cells at 1 uM incubated for 24 hrs by Annexin V and propidium iodide staining based flow cytometry analysis (reference value: 3.38%); assay type: functional
MCF7 = assay: Antiproliferative activity against human MCF7 cells incubated for 72 hrs by MTT assay; assay type: functional, cell-based; details: MCF7, 72 h
[10] = biological target: T1, Tyrosine-protein kinase ITK/TSK (Homo sapiens) (UniProt Q08881); assay: Inhibition of human ITK at 1 uM relative to control
T1 sequence (whole entry): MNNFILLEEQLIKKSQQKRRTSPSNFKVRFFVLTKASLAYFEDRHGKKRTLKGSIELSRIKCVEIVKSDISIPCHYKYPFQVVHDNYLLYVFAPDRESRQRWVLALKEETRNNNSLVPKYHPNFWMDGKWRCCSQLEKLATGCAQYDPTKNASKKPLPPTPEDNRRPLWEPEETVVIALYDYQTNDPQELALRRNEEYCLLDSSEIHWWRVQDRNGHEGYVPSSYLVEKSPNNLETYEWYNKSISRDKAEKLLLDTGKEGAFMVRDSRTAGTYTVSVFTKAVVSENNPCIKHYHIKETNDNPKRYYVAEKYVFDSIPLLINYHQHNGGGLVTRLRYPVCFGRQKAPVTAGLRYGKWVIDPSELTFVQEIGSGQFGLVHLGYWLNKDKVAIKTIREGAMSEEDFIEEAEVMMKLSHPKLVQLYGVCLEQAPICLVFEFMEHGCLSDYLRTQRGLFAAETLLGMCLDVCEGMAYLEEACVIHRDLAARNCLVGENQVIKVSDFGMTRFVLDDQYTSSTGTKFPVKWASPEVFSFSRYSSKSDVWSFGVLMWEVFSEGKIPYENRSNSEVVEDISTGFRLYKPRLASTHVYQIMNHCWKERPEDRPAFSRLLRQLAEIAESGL

[11] = Toxicity in BALB/c nude mouse assessed as effect on kidney at 20 to 60 mg/kg, ip measured after 22 days by H and E staining based analysis; assay type: organism-based; details: in vivo, 528 h, dose 20-60 mg/kg, time 22 day
[12] = tested on: Osimertinib-resistant NCI-H1975 cell; assay: Induction of apoptosis in human Osimertinib-resistant NCI-H1975 cell (AZDR) assessed as late apoptotic cells at 10 uM incubated for 24 hrs by Annexin V and propidium iodide staining based flow cytometry analysis (reference value: 1.06%); assay type: functional
[13] = tested on: Osimertinib-resistant NCI-H1975 cell; assay: Antiproliferative activity against human Osimertinib-resistant NCI-H1975 cell (AZDR) incubated for 72 hrs by MTT assay; assay type: functional, cell-based
[14] = Toxicity in BALB/c nude mouse assessed as effect on heart at 20 to 60 mg/kg, ip measured after 22 days by H and E staining based analysis; assay type: organism-based; details: in vivo, 528 h, dose 20-60 mg/kg, time 22 day
[15] = tested on: Osimertinib-resistant NCI-H1975 cell; assay: Induction of apoptosis in human Osimertinib-resistant NCI-H1975 cell (AZDR) assessed as late apoptotic cells at 0.1 uM incubated for 24 hrs by Annexin V and propidium iodide staining based flow cytometry analysis (reference value: 1.06%); assay type: functional
[16] = tested on: Osimertinib-resistant NCI-H1975 cell; assay: Induction of apoptosis in human Osimertinib-resistant NCI-H1975 cell (AZDR) assessed as increase in number of apoptotic cells measured after 24 hrs by Hoechst 33258 staining based analysis; assay type: functional; details: dose 0.1-10 µM
[17] = biological target: T2, Serine/threonine-protein kinase AKT (Homo sapiens) (UniProt P31751+Q9Y243+P31749); assay: Inhibition of AKT phosphorylation in human Osimertinib-resistant NCI-H1975 cell (AZDR) at 0.1 to 10 uM incubated for 24 hrs by Western blot analysis; assay type: cell-based; details: dose 0.1-10 µM
[18] = tested on: Osimertinib-resistant NCI-H1975 cell; assay: Induction of apoptosis in human Osimertinib-resistant NCI-H1975 cell (AZDR) assessed as caspase3/7 activation using caspase-glo 3/7 as substrate at 0.1 to 10 uM by luminescence based analysis; assay type: functional; details: dose 0.1-10 µM, time 24-72 hrs, TDE = time-dependent effect
[19] = Stability of the compound assessed as half life in presence of glutathione at pH 7.4; assay type: physicochemical; details: solution containing glutathione
[20] = tested on: Osimertinib-resistant NCI-H1975 cell; assay: Induction of apoptosis in human Osimertinib-resistant NCI-H1975 cell (AZDR) assessed as late apoptotic cells at 1 uM incubated for 24 hrs by Annexin V and propidium iodide staining based flow cytometry analysis (reference value: 1.06%); assay type: functional
[21] = tested on: Osimertinib-resistant NCI-H1975 cell; assay: Induction of apoptosis in human Osimertinib-resistant NCI-H1975 cell (AZDR) assessed as early apoptotic cells at 10 uM incubated for 24 hrs by Annexin V and propidium iodide staining based flow cytometry analysis (reference value: 3.38%); assay type: functional
[22] = tested on: Osimertinib-resistant NCI-H1975 cell; assay: Induction of apoptosis in human Osimertinib-resistant NCI-H1975 cell (AZDR) assessed as caspase3/7 activation using caspase-glo 3/7 as substrate incubated for 24 hrs by luminescence based analysis; assay type: functional; details: dose 0.1-10 µM
[23] = tested on: Osimertinib-resistant NCI-H1975 cell; assay: Inhibition of colony formation in human Osimertinib-resistant NCI-H1975 cell (AZDR) measured after 14 days by crystal violet staining based analysis; assay type: functional; details: dose 0.1-10 µM, time 14.0 day
NCI-H1975 = assay: Antiproliferative activity against human NCI-H1975 cells incubated for 72 hrs by MTT assay; assay type: functional, cell-based; details: NCI-H1975, 72 h
[24] = tested on: Osimertinib-resistant NCI-H1975 cell; assay: Induction of apoptosis in human Osimertinib-resistant NCI-H1975 cell (AZDR) assessed as early apoptotic cells at 0.1 uM incubated for 24 hrs by Annexin V and propidium iodide staining based flow cytometry analysis (reference value: 3.38%); assay type: functional
[25] = biological target: T2, Serine/threonine-protein kinase AKT (Homo sapiens); assay: Inhibition of AKT phosphorylation in human NCI-H1975 cells incubated for 24 hrs by Western blot analysis; assay type: cell-based; details: dose 0.1-10 µM

T2 sequence (P31749 whole entry, looked up): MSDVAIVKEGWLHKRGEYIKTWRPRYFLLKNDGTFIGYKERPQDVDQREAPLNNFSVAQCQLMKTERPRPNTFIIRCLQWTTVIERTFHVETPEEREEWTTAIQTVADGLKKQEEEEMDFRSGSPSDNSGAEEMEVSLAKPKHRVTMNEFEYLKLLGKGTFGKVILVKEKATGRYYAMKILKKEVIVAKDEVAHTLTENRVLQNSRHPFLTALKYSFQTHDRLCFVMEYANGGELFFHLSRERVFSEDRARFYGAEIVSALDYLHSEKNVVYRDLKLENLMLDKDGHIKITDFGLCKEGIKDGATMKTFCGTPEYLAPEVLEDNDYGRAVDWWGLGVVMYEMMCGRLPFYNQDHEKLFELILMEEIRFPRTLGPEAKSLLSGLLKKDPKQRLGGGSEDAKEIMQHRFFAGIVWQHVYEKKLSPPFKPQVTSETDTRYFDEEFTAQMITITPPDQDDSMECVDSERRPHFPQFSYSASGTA
T2 sequence (P31751 whole entry, looked up): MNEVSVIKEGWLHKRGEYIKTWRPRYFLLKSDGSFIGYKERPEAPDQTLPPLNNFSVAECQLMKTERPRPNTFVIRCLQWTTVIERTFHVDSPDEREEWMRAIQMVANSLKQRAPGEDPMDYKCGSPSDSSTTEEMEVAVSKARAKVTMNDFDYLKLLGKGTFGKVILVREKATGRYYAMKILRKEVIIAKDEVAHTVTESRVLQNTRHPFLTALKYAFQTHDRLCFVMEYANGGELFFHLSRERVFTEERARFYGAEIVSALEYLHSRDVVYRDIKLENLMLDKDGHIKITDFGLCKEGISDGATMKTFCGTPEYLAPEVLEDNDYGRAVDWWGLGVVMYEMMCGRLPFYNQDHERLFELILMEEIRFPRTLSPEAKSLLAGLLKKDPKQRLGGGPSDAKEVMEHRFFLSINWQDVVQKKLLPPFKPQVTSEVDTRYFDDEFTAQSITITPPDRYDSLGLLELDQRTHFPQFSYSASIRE
T2 sequence (Q9Y243 whole entry, looked up): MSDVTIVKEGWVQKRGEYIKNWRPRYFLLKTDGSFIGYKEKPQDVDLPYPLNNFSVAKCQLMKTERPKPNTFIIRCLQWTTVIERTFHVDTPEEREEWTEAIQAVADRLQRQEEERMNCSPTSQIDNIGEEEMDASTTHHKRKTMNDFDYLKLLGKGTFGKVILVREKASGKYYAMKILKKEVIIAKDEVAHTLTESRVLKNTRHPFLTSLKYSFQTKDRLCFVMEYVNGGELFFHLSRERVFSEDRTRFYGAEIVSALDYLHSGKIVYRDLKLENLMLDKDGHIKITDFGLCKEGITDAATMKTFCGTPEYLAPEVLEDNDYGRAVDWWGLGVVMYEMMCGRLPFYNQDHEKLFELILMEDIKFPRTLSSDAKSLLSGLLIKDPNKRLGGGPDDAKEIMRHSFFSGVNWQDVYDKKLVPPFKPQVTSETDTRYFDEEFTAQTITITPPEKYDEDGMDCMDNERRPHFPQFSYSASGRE

With `C=CC(=O)Nc1cccc(Nc2nc(Nc3cnn(CC)c3)nc3ccc(Cl)cc23)c1` the Activity [1] was “Non-Toxic”, the Activity [2] was “Dose-Dependent Effect” and the Activity [3] was “Dose-Dependent Effect”. For the same molecule, the Activity [4] was “Non-Toxic”, the inhibition (Mus musculus) was “Active” and the inhibition [5] was “Active”. The Activity [6] was “Non-Toxic”, the Activity [7] was “Dose-Dependent Effect” and the Activity [8] was “Non-Toxic”. The Activity [9] was 17.1%, the IC50 (MCF7) was 1.27 µM and the inhibition [10] was 81%. The Activity [11] was “Non-Toxic”, the Activity [12] was 30.7% and the IC50 [13] was 0.67 µM. For the same molecule, the Activity [14] was “Non-Toxic”, the Activity [15] was 9.97% and the Activity [16] was “Dose-Dependent Effect”. The inhibition [17] was “Active”, the Activity [18] was “Tde” and the half-life [19] was 13.8 h. The Activity [20] was 16.1%, the Activity [21] was 48.6% and the Activity [22] was “Dose-Dependent Effect”. For the same molecule, the inhibition [23] was “Dose-Dependent Effect”, the IC50 (NCI-H1975) was 1.04 µM and the Activity [24] was 10.7%. The inhibition [25] was “Dose-Dependent Effect”.
